# Measured values reported in US20020137929A1, “1 - (3-heterocyclylphenyl) isothiourea, -isourea, -guanidine and -amidine herbicidal agents” (Intellectual Property Department, BASF Aktiengesellschaft, priority 1998, published 2002).
# Columns and labels:
# [1] = tested on: IPOHE (Morningglory, Ivyleaf); experiment: Preemergence herbicidal evaluation; assay type: in vivo, Ipomoea hederacea; conditions: rated 4-5 weeks after treatment; for IPOHE rating: preemergence, 0-9 scale
# Procedure, shortened: (§1)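 Steps: mix seeds into potting soil; plant atop ~1 inch soil; spray compound in aqueous acetone (~0.0156-0.500 kg/ha equivalent); maintain in greenhouse with watering; rate visually 0-9 versus control at 4-5 weeks.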
# MOOVA (Monochoria) = experiment: Preemergence weed control under flooded paddy conditions; assay type: in vivo, Monochoria vaginalis; conditions: rated 3-4 weeks after treatment
# Procedure, shortened: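 Visual injury scored 0-9 against control three to four weeks post-treatment, greenhouse-grown. Application: acetone/water (50/50) solutions dosed directly into flood water (1.5-3 cm over silt loam, planted top 0.5 cm), roughly 0.0313 to 0.500 kg/ha active ingredient.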
# [2] = tested on: TRZAWR (Wheat, Winter, cv Riband); experiment: Preemergence herbicidal evaluation; assay type: in vivo, Triticum aestivum; conditions: rated 4-5 weeks after treatment; for TRZAWR rating: preemergence, 0-9 scale
# Procedure, shortened: as §1
# CYPIR (Rice Flatsedge) = experiment: Postemergence weed control under flooded paddy conditions; assay type: in vivo, Cyperus iria; conditions: postemergence weeds
# Procedure, shortened: (§2)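 Injury ratings (0–9 scale covering stand, vigor, malformation, size, chlorosis and overall appearance versus control) were made three to four weeks after treatment. Test material, about 0.0313 to 0.500 kg/ha a.i. in 50/50 v/v aqueous/acetone, was added to flood water 1.5 to 3 cm deep over 3 to 5 cm weeds and 1.5 to 2.5 leaf rice.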
# [3] = tested on: IPOHE (Morningglory, Ivyleaf); experiment: Postemergence herbicidal evaluation; assay type: in vivo, Ipomoea hederacea; conditions: postemergence
# Procedure, shortened: (§3)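 Rate range approx. 0.0156–0.500 kg/ha. Foliar application at 40 psi to ~2-week seedlings; surfactant 0.5% TWEEN 20 in 50/50 acetone/water. Evaluation 4–5 wk post-treatment by 0–9 visual injury score, means of replicate tests.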
# [4] = tested on: ECHORC (Watergrass (Calif.)); experiment: Preemergence weed control under flooded paddy conditions; assay type: in vivo, Echinochloa oryzoides; conditions: rated 3-4 weeks after treatment
# Procedure, shortened: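 Herbicidal effect is scored visually on a 0-9 scale against an untreated control, three to four weeks after compounds are pipetted into the flood water (1.5 to 3 cm deep) over seeds planted in silt loam at 0.5 cm depth. Rates: about 0.0313 to 0.500 kg/ha.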
# [5] = tested on: CHEAL (Lambsquarters, Common); experiment: Preemergence herbicidal evaluation; assay type: in vivo, Chenopodium album; conditions: rated 4-5 weeks after treatment; for CHEAL rating: preemergence, 0-9 scale
# Procedure, shortened: as §1
# ECHCG (Barnyardgrass) = experiment: Preemergence herbicidal evaluation; assay type: in vivo, Echinochloa crus-galli; conditions: rated 4-5 weeks after treatment; for ECHCG rating: preemergence, 0-9 scale
# Procedure, shortened: as §1
# [6] = tested on: TRZAWR (Wheat, Winter, cv Riband); experiment: Postemergence herbicidal evaluation; assay type: in vivo, Triticum aestivum; conditions: postemergence
# Procedure, shortened: as §3
# ABUTH (Velvetleaf) = experiment: Postemergence herbicidal evaluation; assay type: in vivo, Abutilon theophrasti; conditions: postemergence
# Procedure, shortened: as §3
# ORYSAT (Rice, Tebonnet) = experiment: Preemergence herbicidal evaluation; assay type: in vivo, Oryza sativa, (L.) Tebonnet; conditions: rated 4-5 weeks after treatment; for ORYSAT rating: preemergence, 0-9 scale
# Procedure, shortened: as §1
# [7] = tested on: ECHORC (Watergrass (Calif.)); experiment: Postemergence weed control under flooded paddy conditions; assay type: in vivo, Echinochloa oryzoides; conditions: postemergence weeds
# Procedure, shortened: as §2
# SETVI (Foxtail, Green) = experiment: Preemergence herbicidal evaluation; assay type: in vivo, Setaria viridis; conditions: rated 4-5 weeks after treatment; for SETVI rating: preemergence, 0-9 scale
# Procedure, shortened: as §1
# [8] = rate 0.1160 kg/ha, 3-4 weeks after treatment
# [9] = rate 0.2310 kg/ha, 3-4 weeks after treatment
# [10] = rate 0.4630 kg/ha, 3-4 weeks after treatment
# [11] = Rate 0.0313 kg/ha, rated 3 to 4 weeks after treatment
# [12] = Rate 0.0625 kg/ha, rated 3 to 4 weeks after treatment
# [13] = Rate 0.1250 kg/ha, rated 3 to 4 weeks after treatment
# [14] = Rate 0.2500 kg/ha, rated 3 to 4 weeks after treatment
compound,measurement,setting,value
"CCOC(=O)CN1C(=O)C(=C(C)C)S/C1=N/c1cc(-n2c(=O)cc(C(F)(F)F)n(C)c2=O)c(F)cc1Cl [Compound 20, Ethyl 2-{{2-chloro-5-[3,6-dihydro-3-methyl-2,6-dioxo-4-(trifluoromethyl)-1(2H)-pyrimidinyl]-4-fluorophenyl}imino}-5-isopropylidene-4-oxo-3-thiazolidineacetate]",IPOHE preemergence herbicidal rating,[1]; rate 0.0625 kg/ha,0.0
same,IPOHE preemergence herbicidal rating,[1]; rate 0.1250 kg/ha,0.0
same,IPOHE preemergence herbicidal rating,[1]; rate 0.2500 kg/ha,2.0
same,Herbicidal rating MOOVA,MOOVA (Monochoria); 0.1160 kg/ha,9.0
same,Herbicidal rating MOOVA,MOOVA (Monochoria); 0.2310 kg/ha,9.0
same,Herbicidal rating MOOVA,MOOVA (Monochoria); 0.4630 kg/ha,9.0
same,TRZAWR preemergence herbicidal rating,[2]; rate 0.0625 kg/ha,0.0
same,TRZAWR preemergence herbicidal rating,[2]; rate 0.1250 kg/ha,0.0
same,TRZAWR preemergence herbicidal rating,[2]; rate 0.2500 kg/ha,0.0
same,Herbicidal rating CYPIR,CYPIR (Rice Flatsedge); [8],0.0
same,Herbicidal rating CYPIR,CYPIR (Rice Flatsedge); [9],0.0
same,Herbicidal rating CYPIR,CYPIR (Rice Flatsedge); [10],0.0
same,IPOHE herbicidal rating,[3]; rate 0.0158 kg/ha,9.0
same,IPOHE herbicidal rating,[3]; rate 0.0315 kg/ha,3.0
same,IPOHE herbicidal rating,[3]; rate 0.0630 kg/ha,9.0
same,Herbicidal rating ECHORC,[4]; 0.1160 kg/ha,7.0
same,Herbicidal rating ECHORC,[4]; 0.2310 kg/ha,7.0
same,Herbicidal rating ECHORC,[4]; 0.4630 kg/ha,7.0
same,CHEAL preemergence herbicidal rating,[5]; rate 0.0625 kg/ha,9.0
same,CHEAL preemergence herbicidal rating,[5]; rate 0.1250 kg/ha,9.0
same,CHEAL preemergence herbicidal rating,[5]; rate 0.2500 kg/ha,9.0
same,ECHCG preemergence herbicidal rating,ECHCG (Barnyardgrass); rate 0.0625 kg/ha,0.0
same,ECHCG preemergence herbicidal rating,ECHCG (Barnyardgrass); rate 0.1250 kg/ha,0.0
same,ECHCG preemergence herbicidal rating,ECHCG (Barnyardgrass); rate 0.2500 kg/ha,0.0
same,TRZAWR herbicidal rating,[6]; rate 0.0158 kg/ha,3.5
same,TRZAWR herbicidal rating,[6]; rate 0.0315 kg/ha,4.0
same,TRZAWR herbicidal rating,[6]; rate 0.0630 kg/ha,4.0
same,ABUTH herbicidal rating,ABUTH (Velvetleaf); rate 0.0158 kg/ha,9.0
same,ABUTH herbicidal rating,ABUTH (Velvetleaf); rate 0.0315 kg/ha,9.0
same,ABUTH herbicidal rating,ABUTH (Velvetleaf); rate 0.0630 kg/ha,9.0
same,ORYSAT preemergence herbicidal rating,"ORYSAT (Rice, Tebonnet); rate 0.0625 kg/ha",0.0
same,ORYSAT preemergence herbicidal rating,"ORYSAT (Rice, Tebonnet); rate 0.1250 kg/ha",0.0
same,ORYSAT preemergence herbicidal rating,"ORYSAT (Rice, Tebonnet); rate 0.2500 kg/ha",0.0
same,Herbicidal rating ECHORC,[7]; [8],7.0
same,Herbicidal rating ECHORC,[7]; [9],7.0
same,Herbicidal rating ECHORC,[7]; [10],7.0
same,SETVI preemergence herbicidal rating,"SETVI (Foxtail, Green); rate 0.0625 kg/ha",0.0
same,SETVI preemergence herbicidal rating,"SETVI (Foxtail, Green); rate 0.1250 kg/ha",0.0
same,SETVI preemergence herbicidal rating,"SETVI (Foxtail, Green); rate 0.2500 kg/ha",7.0
"CCS(=O)(=O)NC(=O)CC1SC(=Nc2cc(-n3c(=O)cc(C(F)(F)F)n(C)c3=O)c(F)cc2Cl)N(C)C1=O (stereo not shown) [Compound 105, 2-{{2-Chloro-5-[3,6-dihydro-3-methyl-2,6-dioxo-4-(trifluoromethyl)-1(2H)-pyrimidinyl]-4-fluorophenyl}imino}-N-(ethylsulfonyl)-3-methyl-4-oxo-5-thiazolidineacetamide]",IPOHE rating,[1]; 0.1250 kg/ha,0.0
same,IPOHE rating,[1]; 0.2500 kg/ha,3.0
same,IPOHE rating,[1]; 0.5000 kg/ha,4.0
same,MOOVA herbicidal effect rating,MOOVA (Monochoria); 0.0313 kg/ha,6.0
same,MOOVA herbicidal effect rating,MOOVA (Monochoria); 0.0625 kg/ha,7.0
same,MOOVA herbicidal effect rating,MOOVA (Monochoria); 0.1250 kg/ha,7.0
same,MOOVA herbicidal effect rating,MOOVA (Monochoria); 0.2500 kg/ha,9.0
same,TRZAWR rating,[2]; 0.1250 kg/ha,0.0
same,TRZAWR rating,[2]; 0.2500 kg/ha,0.0
same,TRZAWR rating,[2]; 0.5000 kg/ha,0.0
same,Herbicidal rating CYPIR,CYPIR (Rice Flatsedge); [11],5.0
same,Herbicidal rating CYPIR,CYPIR (Rice Flatsedge); [12],7.0
same,Herbicidal rating CYPIR,CYPIR (Rice Flatsedge); [13],7.0
same,Herbicidal rating CYPIR,CYPIR (Rice Flatsedge); [14],9.0
same,herbicidal rating IPOHE,[3]; rate 0.0156 kg/ha,5.0
same,herbicidal rating IPOHE,[3]; rate 0.0313 kg/ha,9.0
same,herbicidal rating IPOHE,[3]; rate 0.0625 kg/ha,9.0
same,herbicidal rating IPOHE,[3]; rate 0.1250 kg/ha,9.0
same,ECHORC herbicidal effect rating,[4]; 0.0313 kg/ha,0.0
same,ECHORC herbicidal effect rating,[4]; 0.0625 kg/ha,3.0
same,ECHORC herbicidal effect rating,[4]; 0.1250 kg/ha,4.0
same,ECHORC herbicidal effect rating,[4]; 0.2500 kg/ha,5.0
same,CHEAL rating,[5]; 0.1250 kg/ha,9.0
same,CHEAL rating,[5]; 0.2500 kg/ha,9.0
same,CHEAL rating,[5]; 0.5000 kg/ha,9.0
same,ECHCG rating,ECHCG (Barnyardgrass); 0.1250 kg/ha,0.0
same,ECHCG rating,ECHCG (Barnyardgrass); 0.2500 kg/ha,0.0
same,ECHCG rating,ECHCG (Barnyardgrass); 0.5000 kg/ha,1.0
same,herbicidal rating TRZAWR,[6]; rate 0.0156 kg/ha,3.5
same,herbicidal rating TRZAWR,[6]; rate 0.0313 kg/ha,3.0
same,herbicidal rating TRZAWR,[6]; rate 0.0625 kg/ha,3.5
same,herbicidal rating TRZAWR,[6]; rate 0.1250 kg/ha,3.5
same,herbicidal rating ABUTH,ABUTH (Velvetleaf); rate 0.0156 kg/ha,4.0
same,herbicidal rating ABUTH,ABUTH (Velvetleaf); rate 0.0313 kg/ha,4.0
same,herbicidal rating ABUTH,ABUTH (Velvetleaf); rate 0.0625 kg/ha,4.0
same,herbicidal rating ABUTH,ABUTH (Velvetleaf); rate 0.1250 kg/ha,9.0
same,ORYSAT rating,"ORYSAT (Rice, Tebonnet); 0.1250 kg/ha",0.0
same,ORYSAT rating,"ORYSAT (Rice, Tebonnet); 0.2500 kg/ha",0.0
same,ORYSAT rating,"ORYSAT (Rice, Tebonnet); 0.5000 kg/ha",0.0
same,Herbicidal rating ECHORC,[7]; [11],0.0
same,Herbicidal rating ECHORC,[7]; [12],3.0
same,Herbicidal rating ECHORC,[7]; [13],4.0
same,Herbicidal rating ECHORC,[7]; [14],5.0
same,SETVI rating,"SETVI (Foxtail, Green); 0.1250 kg/ha",0.0
same,SETVI rating,"SETVI (Foxtail, Green); 0.2500 kg/ha",3.0
same,SETVI rating,"SETVI (Foxtail, Green); 0.5000 kg/ha",3.0
